Measurements reported in article PMC1238745, “A Surface Groove Essential for Viral Bcl-2 Function During Chronic Infection In Vivo” (PLoS Pathogens, 2005).
Ends that are not written are not given here.

Legend:
[1] = molecular target: T1, γHV68 v-Bcl-2 (wild-type) (Murid herpesvirus 4, UniProt P89884); assay: NMR titration of BH3 peptides with wild-type γHV68 v-Bcl-2; assay type: binding, murine γ-herpesvirus 68; details: changes in 13C methyl-HSQC spectrum, 120 μM 13C,15N-labeled protein, peptide 40, 80, 160, 240, and 320 μM, 20 mM 2H-TRIS pH 7.8, 5 mM 2H-dithiothreitol, 303 K
T1 construct: we expressed amino acids 1–137 of the v-Bcl-2, removing the carboxy-terminal hydrophobic domain; made in house; host or cells: E. coli BL21(DE3)
T1 sequence (P89884 whole entry, looked up): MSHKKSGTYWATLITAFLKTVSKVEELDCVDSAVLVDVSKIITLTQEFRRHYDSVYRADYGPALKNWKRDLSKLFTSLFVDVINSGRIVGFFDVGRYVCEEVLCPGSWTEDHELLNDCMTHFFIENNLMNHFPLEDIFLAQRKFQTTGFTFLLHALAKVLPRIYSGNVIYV
Procedure: (§1) Wild-type and SGR/AAA v-Bcl-2 used in NMR studies were expressed in E. coli BL21(DE3) strain grown on M9 media. For wild-type v-Bcl-2, uniformly ^15N-labeled, uniformly ^15N,^13C-labeled, and uniformly ^15N,^13C-labeled, 75% ^2H samples were prepared with media containing either ^15NH4Cl, ^15NH4Cl plus [U-^13C]glucose or ^15NH4Cl, [U-^13C]glucose, and 75% ^2H2O, respectively. For SGR/AAA v-Bcl-2, a ^15N-labeled sample was prepared with media containing ^15NH4Cl as the sole nitrogen source. Soluble protein was purified by Ni^2+-affinity chromatography. NMR samples contained 0.5–1.0 mM protein in either 90% H2O with 10% ^2H2O or 100% ^2H2O, 20 mM ^2H-TRIS (pH 7.8), and 5 mM ^2H-dithiothreitol.
(§2) All NMR experiments were acquired at 303 K on a Bruker DRX500, DRX600 or DRX800 NMR spectrometer. […] Side-chain ^1H and ^13C NMR signals were assigned from HCCH-TOCSY experiments. Stereospecific assignments of valine and leucine methyl groups were obtained from an analysis of the ^13C-^13C coupling patterns observed for biosynthetically directed, fractionally ^13C-labeled γHV68 v-Bcl-2 [87]. NOE distance restraints were obtained from three-dimensional ^15N- and ^13C-edited NOESY spectra acquired with a mixing time of 80 ms. Slowly exchanging amide protons were identified in an ^15N-HSQC spectrum recorded immediately after exchanging the protein into a buffer prepared with ^2H2O.
(§3) Binding of the Bak 16-mer ([…]), the Bax 16-mer ([…]), the Bad 25-mer ([…]), and a D83A mutant Bak 16-mer ([…]) to wild-type v-Bcl-2, and binding of the Bax 16-mer to SGR/AAA v-Bcl-2 was assessed by NMR titration. Each peptide was titrated from a concentrated stock solution into a sample of ^13C-labeled protein, and binding was monitored from changes in a ^13C methyl-HSQC spectrum. For wild-type v-Bcl-2, ^13C-HSQC spectra were recorded on a uniformly ^13C,^15N-labeled protein sample (120 μM) in the presence of increasing amounts of peptide (40, 80, 160, 240, and 320 μM). For SGR/AAA v-Bcl-2, ^15N-HSQC spectra were recorded on a sample of uniformly ^15N-labeled protein in the presence of increasing amounts of peptide.

[2] = molecular target: T2, γHV68 v-Bcl-2 (wild-type) (Murid herpesvirus 4, UniProt P89884); assay: as above; assay type: binding, murine γ-herpesvirus 68; details: 303 K; for binding over the concentration range of the titration: pH 7.8, peptide up to 320 μM
T2 construct: we expressed amino acids 1–137 of the v-Bcl-2, removing the carboxy-terminal hydrophobic domain; made in house; host or cells: E. coli BL21(DE3)
Procedure: as §1, §2, §3

Mcl-1 = details: ref [70],[71]; cited from earlier work
From the text: (§4) In this property, the γHV68 and KSHV v-Bcl-2 proteins resemble cellular Mcl-1, which also fails to bind Bad BH3 peptide and is important for development of B cells, one of the cell types in which γHV68 establishes latency. One possible explanation for the lack of binding to the Bad BH3 peptide is that v-Bcl-2 binding to Bad is detrimental to the virus. Bad was recently found to be essential for assembly of a holoenzyme tha ...

Bcl-2 and Bcl-xL = details: Bad BH3 peptide; ref [9]; read-out: affinity; cited from earlier work
KSHV v-Bcl-2 = details: ref [9]; cited from earlier work
From the text: as §4, with “Each of these proteins interacts with BH3 peptides from Bak and Bax, but the viral proteins differ from the host proteins in their inability to bind the Bad BH3 peptide. […] In” for “In”

Bcl-xL = details: vs Bak peptide; no reference in the sentence, preceding paragraph cites ref [53]; cited from earlier work

For “NLWAAQRYGRELRRMSDEFVSFKK [Bad BH3 peptide, Bad 25-mer ([…]), BH3 peptide from proapoptotic Bad]”, the Kd [1] is listed as > 300 µM, the “binding over the concentration range of the titration” value [2] is listed as “bound weakly” and the “binding of Bad BH3 peptide to Mcl-1” value (Mcl-1) is listed as “fails to bind”. The Kd (Bcl-2 and Bcl-xL) was 0.6 to 15 nM and the “binding to KSHV v-Bcl-2” value (KSHV v-Bcl-2) was “much lower affinity than is observed for Bcl-2 or Bcl-xL”.
In the case of KKLSECLKRIGDELDS [Bax peptide], the “exchange with γHV68 v-Bcl-2 on the NMR timescale” value ([2]; pH 7.8) is listed as “slow exchange” and the “binding to KSHV v-Bcl-2” value (KSHV v-Bcl-2) is listed as “interacts”.
For “GQVGRQLAIIGADINR [D83A mutant Bak peptide]”, the “binding over the concentration range of the titration” value [2] is given as “no binding”, the Kd ([2]; changes in 13C methyl-HSQC spectrum, 120 μM 13C,15N-labeled protein, peptide 40, 80, 160, 240, and 320 μM, 20 mM 2H-TRIS pH 7.8, 5 mM 2H-dithiothreitol) is given as > 300 µM and the “fold reduction of affinity for Bcl-xL by D83A mutation” value (Bcl-xL) is given as “more than 120 fold”.
